Here are results for 13 molecules from patent US5759789A, “Prostaglandin receptor EP2” (Merck Frosst Canada, Inc., priority 1996, dated 1998).

Experiment [1] has as its target T1, EP2 receptor (Homo sapiens, UniProt P35408). Put plainly: [3H]PGE2 binding (competition) assay, membranes of COS-M6 cells transfected with EP2. Details: full-length human EP2 cDNA was isolated; This 1.958 kb cDNA clone encodes a 488-amino acid protein; expressed in transfected cells; host or cells: COS-M6 cells (pcDNAIamp plasmid, DEAE-dextran), 100,000 x g membrane fraction. The conditions noted are these: for rank order of potency for prostaglandins and related analogs / activity at EP2 in words: competition with [3H]PGE2. The procedure:
The cells were maintained in culture for 72 h, then harvested and membranes prepared by differential centrifugation (1000×g for 10 min, then 100,000×g for 30 min) following lysis of the cells by nitrogen cavitation. […] Incubations were conducted for 45 min at 30° C. prior to separation of the bound and free radioligand by rapid filtration through Whatman GF/B filters presoaked at 4° C. in washing buffer ([…] MES/KOH (pH 6.0) containing 0.01% bovine serum albumin).

In a further experiment the test system is IP receptor. The conditions noted are these: cited from earlier work.
Experiment [2] relates to EP2 receptor. The conditions noted are these: cited from earlier work.
A further experiment deals with EP1 receptor. The conditions noted are these: cited from earlier work.
Experiment [3] concerns EP2 receptor. The conditions noted are these: cited from earlier work. The source holds these as a separate data set.
The subject of another experiment is EP3 receptor. The conditions noted are these: cited from earlier work.
Experiment [4] deals with T1, EP2 receptor. Put plainly: PGE2-induced CFTR-mediated Cl- current in Xenopus oocytes injected with EP2 plus CFTR cDNA. It is filed as cell-based. The procedure: Oocytes were taken from adult females of Xenopus laevis using standard surgical procedure (Colman, A., 1984 In: Transcription and Translation--A Practical Approach, IRL Press). To remove follicle cells, oocytes were treated for 2-3 h with freshly made collagenase (2 mg/ml, type 2, Worthington Biochemical Corp., Freehold, N.J.) in Ca^2+ -free ND96 solution (ND96 in mM: NaCl 96, KCl 2, MgCl2 1, HEPES 5, Na-pyruvate 2.5, theophylline 0.5 gentamicin […], +1.8 CaCl2, pH 7.6). Defolliculated stage 5-6 oocytes were selected and maintained in ND96 solution. Oocyte nuclei were injected with 1.6 ng of pcDNAIamp-EP2 plus 2.5 ng of pcDNAIamp-CFTR and then incubated at 18° C. for 48 h before challenge with agonist. CFTR (cystic fibrosis transmembrane regulator, a cAMP dependent Cl^- channel) was co-expressed with EP2 receptor in these oocytes and served as a reporter of changes in intracellular cAMP levels. Functional activity was determined by measurement of PGE2-induced CFTR-mediated Cl^- current. An oocyte was placed in a 0.5 ml perfusion chamber and voltage clamped at -60 mV (with microelectrodes of 0.5-2.0 MW resistance filled with 3M KCl) using a Turbo TEC01C amplifier (NP1 Instruments, Germany). Ligand-containing solution was perfused and the current response was recorded.

For experiment [5], the system named is control oocytes (CFTR alone or CFTR plus antisense EP2 cDNA injected). Put plainly: CFTR-mediated Cl- current in control oocytes (CFTR alone or CFTR plus antisense EP2 cDNA injected). It is filed as cell-based, Xenopus laevis.
Another experiment has as its system TP receptor. The conditions noted are these: cited from earlier work.
Setting [6] is: CFTR alone or CFTR plus antisense EP2 cDNA injected.

Entries after “also recorded” stand apart in the source; their conditions may differ. Where two headings read alike, the source gives them in different places.

T1 sequence (P35408 whole entry): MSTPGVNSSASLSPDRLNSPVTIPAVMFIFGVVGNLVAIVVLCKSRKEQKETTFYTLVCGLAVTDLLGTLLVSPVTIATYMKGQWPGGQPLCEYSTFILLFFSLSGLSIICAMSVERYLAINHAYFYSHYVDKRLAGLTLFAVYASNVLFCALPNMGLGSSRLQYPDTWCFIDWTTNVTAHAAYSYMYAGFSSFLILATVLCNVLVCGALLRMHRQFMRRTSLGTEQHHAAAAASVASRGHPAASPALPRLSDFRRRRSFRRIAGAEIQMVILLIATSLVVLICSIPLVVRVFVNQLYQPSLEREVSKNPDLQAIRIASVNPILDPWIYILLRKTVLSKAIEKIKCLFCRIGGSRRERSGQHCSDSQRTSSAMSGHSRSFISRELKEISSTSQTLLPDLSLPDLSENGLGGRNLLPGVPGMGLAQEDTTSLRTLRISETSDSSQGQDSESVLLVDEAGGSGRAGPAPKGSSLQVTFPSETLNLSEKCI

In the case of `O=C(O)CCCC=CCC1C(=O)CC(O)C1C=CC(O)CCc1ccccc1` (stereo not drawn) [phenyl-trinor PGE2, 17-pheyyl-trinor PGE2], the “rank order of potency for prostaglandins and related analogs” value at EP2 receptor [1] is reported as “PGE2=PGE1>>phenyl-trinor PGE2>iloprost>PGF2α >PGD2≈U46619”.

Regarding `CC#CCC(C)[C@H](O)/C=C/[C@@H]1[C@H]2C/C(=C/CCCC(=O)O)C[C@H]2C[C@H]1O` (stereo partly drawn) [iloprost], the “potency at the IP receptor, stable prostacyclin analog” value with IP receptor is listed as “comparable potency”. Moreover, on EP2 receptor [1], the “rank order of potency for prostaglandins and related analogs” value was “PGE2=PGE1>>phenyl-trinor PGE2>iloprost>PGF2α >PGD2≈U46619”.

By IC50 is commonly meant the concentration at which inhibition is half-maximal. `CCCCC[C@H](O)/C=C/[C@H]1[C@H](O)CC(=O)[C@@H]1CCCCCCC(=O)O` [PGE1]: the “rank order of potency for prostaglandins and related analogs” value at EP2 receptor [1] is recorded as “PGE2=PGE1>>phenyl-trinor PGE2>iloprost>PGF2α >PGD2≈U46619”. For the same molecule, the IC50 at EP2 receptor [1] (read-out: IC50 values in competition assays) was 0.001 µM.

For `CCCCC(C)(O)C/C=C/[C@H]1[C@H](O)CC(=O)[C@@H]1CCCCCCC(=O)OC` (mixture of isomers) [Misoprostol], the IC50 at EP2 receptor [1] (read-out: IC50) was 6.03 µM.

Regarding `CC(C)Oc1ccc2c(=O)c3cc(C(=O)O)ccc3oc2c1` [AH6809], at EP2 receptor [1], the “activity at EP2 in words” value is “essentially inactive”.

Turning to `CCCCC[C@H](O)/C=C/[C@H]1[C@H](O)CC(=O)[C@@H]1C/C=C\CCCC(=O)O` [PGE2, prostaglandin E2], the affinity entry with EP2 receptor [2], in the experiment with EP1 receptor and in the experiment with EP3 receptor was “high affinity” in each case. Also, the “intracellular cAMP levels” value in the experiment on EP2 receptor [3] is reported as “increase in intracellular cAMP levels”. Moreover, the current response result on EP2 receptor [4] (perfusion of 1 nM, voltage clamp -60 mV, 1.6 ng EP2 plus 2.5 ng CFTR cDNA) is “inward cAMP-dependent Cl^- current; also recorded: prominent current responses”. Further, the “response of control oocytes” value in experiment [5] (1 μM, CFTR + anti-sense hEP2 cDNA) is “lack of response”; in experiment [5] (3 μM, CFTR + anti-sense hEP2 cDNA), “lack of response”; in experiment [5] (setting [6]), “absent”. For the same molecule, on EP2 receptor [1], the “rank order of potency for prostaglandins and related analogs” value is listed as “PGE2=PGE1>>phenyl-trinor PGE2>iloprost>PGF2α >PGD2≈U46619”.

On to `CCCCC[C@H](O)/C=C/[C@@H]1[C@@H](C/C=C\CCCC(=O)O)[C@H]2CO[C@@H]1C2` [U46619], for which, in the experiment with TP receptor, the “potency at the TP receptor, stable thromboxane analog” value is reported as “comparable potency”. Moreover, the “rank order of potency for prostaglandins and related analogs” value at EP2 receptor [1] is recorded as “PGE2=PGE1>>phenyl-trinor PGE2>iloprost>PGF2α >PGD2≈U46619”.

With `CC(=O)NNC(=O)N1Cc2ccccc2Oc2ccc(Cl)cc21` [SC19220], the “activity at EP2 in words” value on EP2 receptor [1] was “essentially inactive”.

Take `CCCC1([C@H](O)C/C=C/[C@H]2[C@H](O)CC(=O)[C@@H]2CCCCCCC(=O)OC)CCC1` [butaprost]: the “activity at EP2 in words” value at EP2 receptor [1] was “relatively inactive”. Moreover, the IC50 at EP2 receptor [1] (read-out: IC50) was found to be 30 µM.

As for `CCCCC[C@H](O)/C=C/[C@@H]1[C@@H](C/C=C\CCCC(=O)O)[C@@H](O)C[C@H]1O` [PGF2α], the “current response compared with PGE2” value at EP2 receptor [4] (1 μM PGF2α) is listed as “much smaller”. The “response of control oocytes” value in experiment [5] (setting [6]) is recorded as “absent”. Further, the “rank order of potency for prostaglandins and related analogs” value at EP2 receptor [1] is “PGE2=PGE1>>phenyl-trinor PGE2>iloprost>PGF2α >PGD2≈U46619”.

`CC(C)Cn1c(=O)n(C)c(=O)c2[nH]cnc21` [IBMX]: in experiment [5] (CFTR + anti-sense hEP2 cDNA injected oocytes), the “CFTR-mediated Cl- current” value was “IBMX-induced, CFTR-mediated Cl^- current”.

With `CCCCC[C@H](O)/C=C/[C@H]1C(=O)C[C@H](O)[C@@H]1C/C=C\CCCC(=O)O` [PGD2], at EP2 receptor [1], the “rank order of potency for prostaglandins and related analogs” value is given as “PGE2=PGE1>>phenyl-trinor PGE2>iloprost>PGF2α >PGD2≈U46619”.

Regarding `O=C(O)CCCCCC[C@H]1C(=O)CC[C@@H]1/C=C/[C@@H](O)COc1ccccc1` [MB28767], at EP2 receptor [1] (EP2 versus EP3), the “potency at EP2 relative to EP3 (fold less potent at EP2 than EP3)” value is given as “approximately 30 fold”.
